One test concerns LPS from E. coli O111:B4. Put plainly: LPS binding/neutralization by Limulus Amebocyte Lysate (LAL) assay. The note with it: LPS 1-10,000 ng/mL, test article 0.25-10 μM; for % LPS neutralization of TM: sum of AUCs relative to maximal AUC (Table 14). It is filed as biochemical. Here is the method: The LAL assay (Charles River) was used to determine the binding affinity of test articles to LPS.
For the assay, 25 μL purified LPS from E. coli O111:[…] (Sigma) at doses ranging from 1-10,000 ng/mL were incubated with 25 μL of test article at concentrations ranging from […]. After 5 min incubation at 37° C., 50 μL of LAL reagent, which reacts with lipid A portion from LPS, was added to corresponding wells. After 15 min, absorbance at 405 nm was read on EnSpire plate reader (Perkin Elmer). The % LPS neutralization is calculated relative to a PBS control (background) and LPS control at each concentration (positive control).
LPS neutralization=(1−(absorbance test article−PBS with LAL reagent)/(absorbance no test article−PBS with LAL reagent))×100
To obtain a single value of LPS neutralization for each test article, the area under the curve (AUC) for dose-response of test articles from […] for each LPS concentration was calculated using Prism 7 software. The % LPS neutralization is the sum of the AUCs for each LPS concentration determined relative to the maximal AUC achievable×100.
For the assay, 25 μL purified LPS from E. coli O111:B4 (Sigma) at doses ranging from 1-10,000 ng/mL were incubated with 25 μL of test article at concentrations ranging from 0.25-10 μM. After 5 min incubation at 37° C., 50 μL of LAL reagent, which reacts with lipid A portion from LPS, was added to corresponding wells. After 15 min, absorbance at 405 nm was read on EnSpire plate reader (Perkin Elmer). The % LPS neutralization is calculated relative to a PBS control (background) and LPS control at each concentration (positive control).

Another test relates to Ab 8990 (COL^R). The test is classed as cell-based, Acinetobacter baumannii. The note with it: Ab 8990 (COL^R); media CA-MHB. Here is the method:
(§1) Briefly, stock solutions of all antibacterial agents were prepared fresh in appropriate solvents (i.e. PBS, pH 7.4, DMSO, DI, etc.). Stock concentrations for drug conjugates were made at 12.5× the highest final assay concentration. All were serially diluted 2-fold, 8 or 12 times in a 96-well PCR plate (VWR cat. no. 83007-374). Bacterial cell suspensions generated from Mueller-Hinton agar (MHA) plate cultures were prepared in 0.85% saline and adjusted to ˜0.1 OD600 nm. […] For the conjugates, 92 μL of each cell suspension in RPMI B were added in the same 96-well plate assay format. […] Compounds were tested against a 14-strain panel comprised of E. coli (Ec), A. baumannii (Ab), P. aeruginosa (Pa), and K. pneumoniae (Kp) that were obtained from ATCC (Ec 25922, Ec 2489, Ab 19606, Pa 27853, Pa PAO1, Kp 43816, Kp 10031), Centers for Disease Control and Prevention (Ec AR0349), BEI Resources (Ab AB5075), Micromyx LLC (Ab 8990, Kp 6951), and Belgian Coordinated Collections of Microorganisms (Pa LES431) or generated in-house (Ec 25922 64X-1). […] E. coli strain ATCC 25922 and P. aeruginosa strain LES431 were run in the presence and absence of 50% heat-inactivated fetal bovine serum (FBS; Sigma, cat. no. F4135-100 mL). Plates were mixed by shaking then incubated at 35° C. overnight (16-20 h).

In the next test the test system is Ab AB5075. It is filed as cell-based, Acinetobacter baumannii. Here is the method: as §1
For another test, the system named is Pa 27853. The test is classed as cell-based, Pseudomonas aeruginosa. Here is the method: as §1
The next test has as its system Pa LES431. It is filed as cell-based, Pseudomonas aeruginosa. Here is the method:
as §1

The next test relates to Pa PAO1. It is filed as cell-based, Pseudomonas aeruginosa. Here is the method:
as §1

A further test deals with Kp 43816. The test is classed as cell-based, Klebsiella pneumoniae. Here is the method:
as §1

The test system of another test is Kp 10031. The test is classed as cell-based, Klebsiella pneumoniae. Here is the method: as §1
The subject of a further test is Kp 6951 (COL^R). The test is classed as cell-based, Klebsiella pneumoniae. The note with it: Kp 6951 (COL^R); media CA-MHB. Here is the method:
as §1

A further test relates to Ab 19606 (COLhet^R). It is filed as cell-based, Acinetobacter baumannii. The note with it: media CA-MHB. Here is the method:
(§2) Briefly, stock solutions of all antibacterial agents were prepared fresh in appropriate solvents (i.e. PBS, pH 7.4, DMSO, DI, etc.). Stock concentrations for drug conjugates were made at 12.5× the highest final assay concentration. All were serially diluted 2-fold, 8 or 12 times in a 96-well PCR plate (VWR cat. no. 83007-374). Bacterial cell suspensions generated from Mueller-Hinton agar (MHA) plate cultures were prepared in 0.85% saline and adjusted to ˜0.1 OD600 nm. Next, cell suspensions were diluted 1:200 in RPMI containing 5% Luria Broth (LB) to improve bacterial growth (BD Difco, cat. no. 244620) to a concentration of ˜5×10^5 CFU (colony-forming units)/mL. Due to poor solubility in Mueller-Hinton broth media, drug conjugates were evaluated in RPMI 1640 medium (+) L-glutamine, (+) sodium bicarbonate, pH 7.4 (“RPMI B”; Gibco, cat. no. 11875-085) as has been described as a more physiologically-relevant media for susceptibility testing of antibacterial compounds (1). For the conjugates, 92 μL of each cell suspension in RPMI B were added in the same 96-well plate assay format. […] Compounds were tested against a 14-strain panel comprised of E. coli (Ec), A. baumannii (Ab), P. aeruginosa (Pa), and K. pneumoniae (Kp) that were obtained from ATCC (Ec 25922, Ec 2489, Ab 19606, Pa 27853, Pa PAO1, Kp 43816, Kp 10031), Centers for Disease Control and Prevention (Ec AR0349), BEI Resources (Ab AB5075), Micromyx LLC (Ab 8990, Kp 6951), and Belgian Coordinated Collections of Microorganisms (Pa LES431) or generated in-house (Ec 25922 64X-1). […] E. coli strain ATCC 25922 and P. aeruginosa strain LES431 were run in the presence and absence of 50% heat-inactivated fetal bovine serum (FBS; Sigma, cat. no. F4135-100 mL). Plates were mixed by shaking then incubated at 35° C. overnight (16-20 h).

The test system of another test is Ec 2469. The test is classed as cell-based, Escherichia coli. Here is the method: as §1
In another test the test system is Ec 25922. The test is classed as cell-based, Escherichia coli. Here is the method:
as §1

The next test has as its system Ec 25922 64X-1 (COL^R). It is filed as cell-based, Escherichia coli. The note with it: media CA-MHB. Here is the method:
as §2

The next test relates to Ec AR0349 (mcr-1, COL^R). It is filed as cell-based, Escherichia coli. The note with it: media CA-MHB. Here is the method: as §2
A further test relates to Sa RN. It is filed as cell-based.

This is an account of results in patent publication US20230165970A1, “COMPOSITIONS AND METHODS FOR THE TREATMENT OF BACTERIAL INFECTIONS” (priority 2017, published 2023).

Values after ≈ are worked out from the molar mass of the structure shown. Like-named read-outs stand apart in the source and are kept apart here. *1 amine or outer side, *2 acyl side, *3 side chain or, on linkers, in order; H or OH if unused. Where a SMILES comes first, the peptide text is derived from it. Bridges are numbered along the chain shown (N, C = ends). Roman numbers before positions name the chains, in order. [ ]: non-standard residue; d: D form. The star is where a group is joined. ξ: configuration not given here. X8 = C#CCOCCOCCOCCOCCN1CCN(C2C[C@@H](C(=O)[*:1])[C@H](C(=O)[*:2])C2)CC1; X2 = O=C([C@@H](N[*:1])[C@H](O)CCC(F)(F)F)[*:2]; Propargyl(OCH2CH2)4CO = C#CCOCCOCCOCCOCCC(=O)*; X3 = CCCCC[C@@H](O)[C@H](N[*:1])C(=O)[*:2]; Aoc(2) = CCCCCC[C@H](N)C(=O)O; Nle = CCCC[C@H](N)C(=O)O; ξF = NC(Cc1ccccc1)C(=O)O; Dab = NCC[C@H](N)C(=O)O; ξT = CC(O)C(N)C(=O)O; azaGly = NNC(=O)O Bounds are passed on as bounds.

What is called MIC is the smallest concentration in the dilution series that meets the test's criterion for growth inhibition.

`C#CCOCCOCCOCCOCCC(=O)N[C@@H](CCCC)C(=O)N[C@@H](CCN)C(=O)N[C@H](C(=O)N[C@@H](CCN)C(=O)N[C@H]1CCNC(=O)[C@H]([C@@H](C)O)NC(=O)[C@H](CCN)NC(=O)[C@H](CCN)NC(=O)[C@H](CC(C)C)NC(=O)[C@@H](Cc2ccccc2)NC(=O)[C@H](CCN)NC1=O)[C@H](O)CCCCC` [Int-94] ({Propargyl(OCH2CH2)4CO}-[Nle][Dab][X3][Dab][Dab][Dab][dF]L[Dab][Dab]T; lactam 5-C): the “% LPS neutralization of TM” value in the test with LPS from E. coli O111:B4 worked out at 79.3%.
Still for that read-out and setting: the figure for `C#CCOCCOCCOCCOCCC(=O)N[C@@H](CCCC)C(=O)N[C@@H](CCN)C(=O)N[C@H](C(=O)NNC(=O)N[C@H]1CCNC(=O)[C@H]([C@@H](C)O)NC(=O)[C@H](CCN)NC(=O)[C@H](CCN)NC(=O)[C@H](CC(C)C)NC(=O)[C@@H](Cc2ccccc2)NC(=O)[C@H](CCN)NC1=O)[C@H](O)CCCCC` [Int-100] ({Propargyl(OCH2CH2)4CO}-[Nle][Dab][X3][azaGly][Dab][Dab][dF]L[Dab][Dab]T; lactam 5-C) is 38.9%.
Turning to `C#CCOCCOCCOCCOCCN1CCN(C2C[C@@H](C(=O)N[C@@H](CCCC)C(=O)N[C@@H](CCN)C(=O)N[C@H](C(=O)NNC(=O)N[C@H]3CCNC(=O)[C@H]([C@@H](C)O)NC(=O)[C@H](CCN)NC(=O)[C@H](CCN)NC(=O)[C@H](CC(C)C)NC(=O)C(Cc4ccccc4)NC(=O)[C@H](CCN)NC3=O)[C@@H](C)O)[C@H](C(=O)N[C@@H](CCCC)C(=O)N[C@@H](CCN)C(=O)N[C@H](C(=O)NNC(=O)N[C@H]3CCNC(=O)C(C(C)O)NC(=O)[C@H](CCN)NC(=O)[C@H](CCN)NC(=O)[C@H](CC(C)C)NC(=O)[C@@H](Cc4ccccc4)NC(=O)[C@H](CCN)NC3=O)[C@@H](C)O)C2)CC1` (stereo partly shown) [Int-105] (I: [Nle][Dab]T[azaGly][Dab][Dab][dF]L[Dab][Dab][ξT] / II: [Nle][Dab]T[azaGly][Dab][Dab][ξF]L[Dab][Dab]T; lactam I:5-I:C, II:5-II:C; linker I:N-II:N via X8), in the test on LPS from E. coli O111:B4, the “% LPS neutralization of TM” value was found to be 33.2%. Also, the minimum inhibitory concentration (MIC) in the test on Ab 8990 (COL^R) was above 128 µg/mL; against Ab AB5075 (Ab AB5075, media CA-MHB), 2 µg/mL (≈ 0.744 µM); against Pa 27853 (Pa 27853, media CA-MHB), 4 µg/mL (≈ 1.49 µM); in the test with Pa LES431 (Pa LES431 + FBS (50%, heat-inactivated), media CA-MHB), 16 µg/mL; against Pa LES431 (Pa LES431, media CA-MHB), 2 µg/mL (≈ 0.744 µM); with Pa PAO1 (Pa PAO1, media CA-MHB), 4 µg/mL (≈ 1.49 µM). The minimal inhibitory concentration (MIC) was determined as 2 µg/mL (≈ 0.744 µM) against Kp 43816 (Kp 43816, media CA-MHB); 2 µg/mL (≈ 0.744 µM) in the test on Kp 10031 (Kp 10031, media CA-MHB); 32 µg/mL (≈ 11.9 µM) in the test on Kp 6951 (COL^R); 2 µg/mL (≈ 0.744 µM) in the test on Ab 19606 (COLhet^R); 2 µg/mL (≈ 0.744 µM) against Ec 2469 (Ec 2469, media CA-MHB); 0.5 µg/mL with Ec 25922 (Ec 25922 + FBS (50%, heat-inactivated), media CA-MHB). The minimum inhibitory concentration (MIC) against Ec 25922 (Ec 25922, media CA-MHB) worked out at 2 µg/mL (≈ 0.744 µM); against Ec 25922 64X-1 (COL^R), 4 µg/mL (≈ 1.49 µM); in the test with Ec AR0349 (mcr-1, COL^R) it was 4 µg/mL (≈ 1.49 µM).
As to `C#CCOCCOCCOCCOCCC(=O)N[C@@H](CCCCCC)C(=O)N[C@@H](CCN)C(=O)N[C@H](C(=O)NNC(=O)N[C@H]1CCNC(=O)[C@H]([C@@H](C)O)NC(=O)[C@H](CCN)NC(=O)[C@H](CCN)NC(=O)[C@H](CC(C)C)NC(=O)[C@@H](Cc2ccccc2)NC(=O)[C@H](CCN)NC1=O)[C@H](O)CCC(F)(F)F` [Int-119] ({Propargyl(OCH2CH2)4CO}-[Aoc(2)][Dab][X2][azaGly][Dab][Dab][dF]L[Dab][Dab]T; lactam 5-C), the MIC in the test on Ab AB5075 came to 1 µg/mL (≈ 0.673 µM); in the test on Pa 27853 it was 4 µg/mL (≈ 2.69 µM); with Pa LES431, 4 µg/mL (≈ 2.69 µM); in the test with Pa PAO1 (PAO1), 16 µg/mL (≈ 10.8 µM); with Kp 43816, 2 µg/mL (≈ 1.35 µM); against Kp 10031, 2 µg/mL (≈ 1.35 µM). The figures for the MIC in the test with Sa RN, in the test on Ec 2469 and with Ec 25922 were above 128 µg/mL, 2 µg/mL (≈ 1.35 µM) and 2 µg/mL (≈ 1.35 µM), respectively.
As for colistin sulfate, the “% LPS neutralization” value with LPS from E. coli O111:B4 (sum of AUCs relative to maximal AUC (Table 15)) is recorded as 9.21%.
